Measured values published in ChEMBL document CHEMBL1201862, “PubChem BioAssay data set” (2004).
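Where inhibition never reached the appropriate level, the endpoint shown equals the highest concentration tested. Otherwise, values were interpolated linearly from a five-concentration, 48-hour dose response in 96-well plates. Here, GI50 denotes the concentration required for 50% inhibition of growth.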 Active and inactive are the calls of the source. Cut-off read from the data, not from the text of the source: active = GI50 up to about 1.1 µM and inactive = higher.

Assays:
Experiment in all cases: growth of human tumour cells (NCI), 48 h
NCI-H522 = system: NCI-H522
CCRF-CEM = system: CCRF-CEM
OVCAR-3 = system: OVCAR-3
HOP-92 = system: HOP-92
NCI-H460 = system: NCI-H460
OVCAR-4 = system: OVCAR-4
LOX IMVI = system: LOX IMVI
SF-539 = system: SF-539
UO-31 = system: UO-31
HCC 2998 = system: HCC 2998
NCI/ADR-RES = system: NCI/ADR-RES
RXF 393 = system: RXF 393
HOP-62 = system: HOP-62
SW-620 = system: SW-620
SF-268 = system: SF-268
K562 = system: K562
M14 = system: M14
A549 = system: A549
Malme-3M = system: Malme-3M
HT-29 = system: HT-29

Row | Structure (SMILES) | GI50 (NCI-H522) | GI50 (CCRF-CEM) | GI50 (OVCAR-3) | GI50 (HOP-92) | GI50 (NCI-H460) | GI50 (OVCAR-4) | GI50 (LOX IMVI) | GI50 (SF-539) | GI50 (UO-31) | GI50 (HCC 2998) | GI50 (NCI/ADR-RES) | GI50 (RXF 393) | GI50 (HOP-62) | GI50 (SW-620) | GI50 (SF-268) | GI50 (K562) | GI50 (M14) | GI50 (A549) | GI50 (Malme-3M) | GI50 (HT-29)
1 | CC(=O)c1ccc(/N=N/N2CCCC2)cc1 | > 100 µM (inactive) | > 100 µM (inactive) | > 100 µM (inactive) | > 100 µM (inactive) | > 100 µM (inactive) | > 100 µM (inactive) | > 100 µM (inactive) | > 100 µM (inactive) | > 100 µM (inactive) | > 100 µM (inactive) | > 100 µM (inactive) | > 100 µM (inactive) | > 100 µM (inactive) | > 100 µM (inactive) | > 100 µM (inactive) | > 100 µM (inactive) | > 100 µM (inactive) | – | – | –
2 | COc1ccc2c(c1)/C(=C\c1cccc(/C=C3/C(=O)Nc4ccc(OC)cc43)n1)C(=O)N2 | 0.861 µM (active) | 0.421 µM (active) | 0.676 µM (active) | 2.25 µM (inactive) | 1.4 µM (inactive) | 1.02 µM (active) | – | 1.42 µM (inactive) | 1.67 µM (inactive) | 0.933 µM (active) | 8.85 µM (inactive) | 0.942 µM (active) | 1.55 µM (inactive) | 0.982 µM (active) | 2.42 µM (inactive) | 0.412 µM (active) | 1.32 µM (inactive) | 3.05 µM (inactive) | 2.01 µM (inactive) | –
3 | O=C(CC(=O)N1N=C(N(c2ccccc2)c2ccccc2)CC1c1ccccc1)Nc1ccccc1 (stereo unspecified) | 64.1 µM (inactive) | > 100 µM (inactive) | > 100 µM (inactive) | > 100 µM (inactive) | > 100 µM (inactive) | > 100 µM (inactive) | – | > 100 µM (inactive) | > 100 µM (inactive) | > 100 µM (inactive) | > 100 µM (inactive) | 49.8 µM (inactive) | 48.5 µM (inactive) | > 100 µM (inactive) | 40.8 µM (inactive) | > 100 µM (inactive) | > 100 µM (inactive) | > 100 µM (inactive) | – | > 100 µM (inactive)
4 | CC(=O)Nc1c(S(=O)(=O)c2ccccc2)c(C)c(C)n1Cc1ccccc1 | > 100 µM (inactive) | > 100 µM (inactive) | 52.8 µM (inactive) | > 100 µM (inactive) | > 100 µM (inactive) | > 100 µM (inactive) | – | – | > 100 µM (inactive) | > 100 µM (inactive) | > 100 µM (inactive) | > 100 µM (inactive) | – | > 100 µM (inactive) | > 100 µM (inactive) | > 100 µM (inactive) | > 100 µM (inactive) | > 100 µM (inactive) | > 100 µM (inactive) | > 100 µM (inactive)
5 | CC(C)OC(=O)[C@H]1ON2O[C@H](O[C@@H]3CCCC[C@H]3c3ccccc3)C([Si](C)(C)c3ccccc3)[C@H]3OC(=O)[C@@H]1C32 (stereo partly specified) | 81.3 µM (inactive) | 94 µM (inactive) | > 100 µM (inactive) | > 100 µM (inactive) | > 100 µM (inactive) | – | > 100 µM (inactive) | > 100 µM (inactive) | > 100 µM (inactive) | > 100 µM (inactive) | > 100 µM (inactive) | > 100 µM (inactive) | > 100 µM (inactive) | > 100 µM (inactive) | > 100 µM (inactive) | 34 µM (inactive) | > 100 µM (inactive) | > 100 µM (inactive) | – | > 100 µM (inactive)
6 | O=C1OCC2=Nc3cccc4cccc(c34)N12 | 88.9 µM (inactive) | 49.8 µM (inactive) | > 100 µM (inactive) | < 0.01 µM (active) | > 100 µM (inactive) | > 100 µM (inactive) | > 100 µM (inactive) | > 100 µM (inactive) | > 100 µM (inactive) | > 100 µM (inactive) | > 100 µM (inactive) | > 100 µM (inactive) | > 100 µM (inactive) | > 100 µM (inactive) | > 100 µM (inactive) | > 100 µM (inactive) | > 100 µM (inactive) | > 100 µM (inactive) | – | > 100 µM (inactive)
7 | CN(/N=C/c1ccnc2ccccc12)c1ccc(Cl)cc1[N+](=O)[O-] | > 100 µM (inactive) | 50 µM (inactive) | 80.9 µM (inactive) | 25.8 µM (inactive) | > 100 µM (inactive) | 4.92 µM (inactive) | – | 24.4 µM (inactive) | > 100 µM (inactive) | > 100 µM (inactive) | > 100 µM (inactive) | 37.3 µM (inactive) | 31.8 µM (inactive) | > 100 µM (inactive) | 80 µM (inactive) | > 100 µM (inactive) | > 100 µM (inactive) | > 100 µM (inactive) | 70.3 µM (inactive) | 98.2 µM (inactive)
8 | CO/N=C(\C(=O)Nc1cncs1)c1csc(N)n1 | > 10 µM (inactive) | > 10 µM (inactive) | > 10 µM (inactive) | > 10 µM (inactive) | > 10 µM (inactive) | > 10 µM (inactive) | > 10 µM (inactive) | > 10 µM (inactive) | > 10 µM (inactive) | > 10 µM (inactive) | > 10 µM (inactive) | – | > 10 µM (inactive) | > 10 µM (inactive) | > 10 µM (inactive) | > 10 µM (inactive) | > 10 µM (inactive) | > 10 µM (inactive) | > 10 µM (inactive) | > 10 µM (inactive)
9 | COc1ccc(C(=O)C#Cc2cnc(OC)nc2OC)cc1 | 1.39 µM (inactive) | 0.13 µM (active) | 1.68 µM (inactive) | 1.76 µM (inactive) | 2.65 µM (inactive) | 6.5 µM (inactive) | 0.147 µM (active) | – | 1.29 µM (inactive) | 1.84 µM (inactive) | 1.82 µM (inactive) | 1.87 µM (inactive) | 17 µM (inactive) | 0.571 µM (active) | 2.74 µM (inactive) | 0.367 µM (active) | 1.36 µM (inactive) | 4.17 µM (inactive) | 1.67 µM (inactive) | 1.22 µM (inactive)
10 | COc1ccc(NCc2cnc3nc(N)nc(N)c3c2C)cc1 | 5.52 µM (inactive) | 0.57 µM (active) | 28.4 µM (inactive) | 5.93 µM (inactive) | 0.433 µM (active) | > 53.5 µM (inactive) | 0.316 µM (active) | 0.7 µM (active) | > 49.8 µM (inactive) | 12.7 µM (inactive) | > 100 µM (inactive) | 43.5 µM (inactive) | 1.16 µM (inactive) | 0.914 µM (active) | 0.618 µM (active) | 0.0486 µM (active) | 1.69 µM (inactive) | 0.303 µM (active) | – | 0.406 µM (active)
11 | Cc1ccccc1/N=N/c1ccc(N/N=C2/CCCNC2=O)c(C)c1 | 31.2 µM (inactive) | 9.46 µM (inactive) | – | > 100 µM (inactive) | > 100 µM (inactive) | 66.8 µM (inactive) | > 100 µM (inactive) | – | 39.5 µM (inactive) | > 100 µM (inactive) | > 100 µM (inactive) | > 100 µM (inactive) | > 100 µM (inactive) | > 100 µM (inactive) | > 100 µM (inactive) | > 100 µM (inactive) | > 100 µM (inactive) | 68.1 µM (inactive) | > 100 µM (inactive) | > 100 µM (inactive)
